Reference: BindingDB's records for patent WO2022021841 (Sichuan University, 2022)

Molecular target: Replicase polyprotein 1ab (Severe acute respiratory syndrome coronavirus 2, UniProt P0DTD1)
Experiment: SARS-CoV-2 Coronavirus 3C Protease FRET Assay
Experimental: IC50 values were calculated by fitting a curve of Vmax to experimental values with the controls (DMSO) as the top and bottom limits of the curve. […] GraphPad Prism is the analysis tool for all measurements.

Structure (SMILES) | Ki [nM]
O=C(N[C@@H](C[C@@H]1CCNC1=O)C(=O)CCl)C1[C@@H]2CCC[C@H]2CN1C(=O)COc1ccc(Cl)cc1Cl (stereo not given in full) [WO2022021841, 42] | 19
CC1CNC(=O)[C@@H]1C[C@H](NC(=O)C1[C@H]2CCC[C@H]2CN1C(=O)COc1cccc(-c2ccccc2)c1)C(=O)CF (stereo not given in full) [WO2022021841, 5] | 11
CC1(C)CNC(=O)[C@@H]1C[C@@H](C=O)NC(=O)C1[C@@H]2CCC[C@H]2CN1C(=O)COc1ccc(Cl)cc1Cl (stereo not given in full) [WO2022021841, 54] | 24
COc1ccc(CCC(=O)N2C[C@@H]3CCC[C@H]3C2C(=O)N[C@H](C=O)C[C@@H]2CCNC2=O)c(Cl)c1 (stereo not given in full) [WO2022021841, 77] | 56
O=C[C@H](C[C@@H]1CCNC1=O)NC(=O)C1[C@@H]2CCC[C@H]2CN1C(=O)CCc1ccc(F)c(F)c1 (stereo not given in full) [WO2022021841, 25] | 16
O=C[C@H](C[C@@H]1CCNC1=O)NC(=O)C1[C@@H]2CCC[C@H]2CN1C(=O)CCc1ccc(O)c(O)c1 (stereo not given in full) [WO2022021841, 75] | 41
CC(C)(C)NC(=O)C(=O)[C@H](C[C@@H]1CCNC1=O)NC(=O)C1[C@@H]2CCC[C@H]2CN1C(=O)COc1ccc(Cl)cc1Cl (stereo not given in full) [WO2022021841, 50] | 1190
COc1ccc(OC(C)C(=O)N2C[C@@H]3CCC[C@H]3C2C(=O)N[C@H](C=O)C[C@@H]2CCNC2=O)cc1 (stereo not given in full) [WO2022021841, 29] | 78
COc1ccc(CCC(=O)N2C[C@@H]3CCC[C@H]3C2C(=O)N[C@H](C=O)C[C@@H]2CCNC2=O)cc1 (stereo not given in full) [WO2022021841, 76] | 51
O=C[C@H](C[C@@H]1CCNC1=O)NC(=O)C1[C@@H]2CCC[C@H]2CN1C(=O)COc1cccc(-c2ccccc2)c1 (stereo not given in full) [WO2022021841, 46] | 10
CC(C)(C)C(NC(=O)Cc1ccc(Cl)cc1Cl)C(=O)N1C[C@@H]2CCC[C@H]2C1C(=O)N[C@H](C=O)C[C@@H]1CCNC1=O (stereo not given in full) [WO2022021841, 60] | 33
CC(C)(C)C(NCc1ccc(Cl)cc1Cl)C(=O)N1C[C@@H]2CCC[C@H]2C1C(=O)N[C@H](C=O)C[C@@H]1CCNC1=O (stereo not given in full) [WO2022021841, 61] | 39
COc1cccc(CCC(=O)N2C[C@@H]3CCC[C@H]3C2C(=O)N[C@H](C=O)C[C@@H]2CCNC2=O)c1 (stereo not given in full) [WO2022021841, 78] | 68
CC1(C)[C@H]2CN(C(=O)COc3ccc(Cl)cc3Cl)C(C(=O)N[C@H](C=O)C[C@H]3C(=O)NCC3(F)F)[C@@H]21 (stereo not given in full) [WO2022021841, 56] | 33
O=C[C@H](C[C@@H]1CCNC1=O)NC(=O)C1[C@@H]2CCC[C@H]2CN1C(=O)C(F)Oc1ccc(Cl)cc1Cl (stereo not given in full) [WO2022021841, 72] | 31
O=C[C@H](C[C@@H]1CCNC1=O)NC(=O)C1[C@@H]2CCC[C@H]2CN1C(=O)/C=C/c1ccc(Cl)cc1Cl (stereo not given in full) [WO2022021841, 70] | 81
COc1cccc(OCC(=O)N2C[C@H]3[C@@H](C2C(=O)N[C@H](C=O)C[C@@H]2CCNC2=O)C3(C)C)c1 (stereo not given in full) [WO2022021841, 23] | 37
COC(=O)C[C@H](NC(=O)[C@@H]1CCCN1C(=O)c1cc2ccccc2[nH]1)C(=O)CF [WO2022021841, 1] | 1100
CC1CNC(=O)[C@@H]1C[C@H](NC(=O)C1[C@@H]2[C@H](CN1C(=O)COc1ccc(Cl)cc1Cl)C2(C)C)C(=O)CF (stereo not given in full) [WO2022021841, 6] | 9
O=C[C@H](C[C@@H]1CCNC1=O)NC(=O)C1[C@@H]2CCC[C@H]2CN1C(=O)COc1ccc2c(c1)OCCO2 (stereo not given in full) [WO2022021841, 22] | 93
O=C(NCc1ccccc1)C(=O)[C@H](C[C@@H]1CCNC1=O)NC(=O)C1[C@@H]2CCC[C@H]2CN1C(=O)COc1ccc(Cl)cc1Cl (stereo not given in full) [WO2022021841, 51] | 50400
O=C[C@H](C[C@@H]1CCNC1=O)NC(=O)C1[C@@H]2CCC[C@H]2CN1C(=S)NCc1ccc(F)cc1 (stereo not given in full) [WO2022021841, 58] | 30
CC1CNC(=O)[C@@H]1C[C@H](NC(=O)C1[C@@H]2[C@H](CN1C(=O)COc1ccc(Cl)c(Cl)c1)C2(C)C)C(=O)CF (stereo not given in full) [WO2022021841, 7] | 15
CC(Oc1ccc(Cl)cc1Cl)C(=O)N1C[C@@H]2CCC[C@H]2C1C(=O)N[C@H](C=O)C[C@@H]1CCNC1=O (stereo not given in full) [WO2022021841, 69] | 107
CC1CNC(=O)[C@@H]1C[C@H](NC(=O)C1[C@@H]2[C@H](CN1C(=O)COc1cccc(-c3ccc(Cl)cc3)c1)C2(C)C)C(=O)CF (stereo not given in full) [WO2022021841, 8] | 17
CC(C)(Oc1ccc(Cl)cc1Cl)C(=O)N1C[C@@H]2CCC[C@H]2C1C(=O)N[C@H](C=O)C[C@@H]1CCNC1=O (stereo not given in full) [WO2022021841, 39] | 33
CC1(C)[C@@H]2C(C(=O)N[C@H](C=O)Cc3ccccc3)N(C(=O)c3ccc4ccccc4c3)C[C@@H]21 (stereo not given in full) [WO2022021841, 10] | 585
O=C(N[C@@H](C[C@@H]1CCNC1=O)C(=O)CF)C1[C@H]2CCC[C@H]2CN1C(=O)COc1ccc(Cl)cc1Cl (stereo not given in full) [WO2022021841, 3] | 18
CC1(C)CNC(=O)[C@@H]1C[C@@H](C=O)NC(=O)C1[C@H]2[C@H](CN1C(=O)COc1ccc(Cl)cc1Cl)C2(C)C (stereo not given in full) [WO2022021841, 55] | 31
CC1(C)[C@@H]2C(C(=O)N[C@H](C=O)Cc3ccccc3)N(C(=O)c3ccc4ccccc4n3)C[C@@H]21 (stereo not given in full) [WO2022021841, 9] | 24200
